Reference: patent publication US20250066347A1, “SUBSTITUTED THIAZOLIDINEDIONE DERIVATIVE COMPOUND, AND PHARMACEUTICAL COMPOSITION FOR PREVENTING OR TREATING CANCER, COMPRISING SAME” (MEDIFIC, INC., priority 2021, published 2025)
Several values for one entry are separate records, joined by “and”; a condition that tells them apart may be missing. Equal values may be shown once. Read-outs that look alike come from different tables or passages of the source.

How the values were obtained:
[1] = system: HOG-GSC cells; experiment: Comparison of cell viability in brain tumor stem cell (MTS assay); format: cell-based; conditions: 72 hours, DMSO control = 1, value below 0.5 = viability decreased by 50% or more
Procedure: HOG-GSC cells which are brain tumor stem cells were treated with 11 compounds at 10 μM and DMSO as a control group, and the number of surviving cells after 72 hours was evaluated by MTS assay.
HOG-GSC which is a brain tumor stem cell was seeded on a 96-well plate at 5000 cells per well, and was cultured in an incubator (ThermoFisher) at 37° C. and 5% CO2 for 24 hours for stabilization of cells. Thereafter, it was treated with 11 compounds of the present invention at […] each, and treated with the same volume of DMSO as a control group as the volume of each compound. After treatment with the compound of the present invention and the control group, cells were cultured in an incubator at 37° C. and 5% CO2 for 72 hours. Thereafter, since there were many living cells in each well, cell viability was quantified using a cell viability assay kit (LPS solution) of which the color becomes darker with an increase in the number of cells. After treatment with the cell viability assay solution, a reaction was performed in an incubator at 37° C. and 5% CO2 for 3 hours to perform coloration, absorbance at 450 nm was measured using a microplate reader (BioTek), and an absorbance intensity of the control group was set to 1 and the absorbance of cells treated with each compound was normalized and is shown in FIG. 2.

[2] = In vivo brain tissue distribution test after oral administration; conditions: mouse; for Kp / Cmax / Tmax / AUC(0-inf) / AUC(0-t) / MRT inf / half-life: Hsd:ICR(CD-1R); for Kp: brain/plasma, po, 25 mg/kg, PO; for AUC(0-inf): read-out: AUCinf, Mean; for AUC(0-t): read-out: AUClast, Mean; for MRT inf: read-out: MRTinf, Mean; for half-life: read-out: t1/2, Mean (converted)
Procedure: • Test drug: Compound 11 • Excipient: 20% hydroxypropyl-β-cyclodextrin aqueous solution to which 1% DMSO was added 2.2. Experimental system • Mouse, Hsd:ICR(CD-1R), SPF […] (7 weeks old at the time of administration)
After obtaining the mouse, the mouse was quarantined and acclimatized for 2 weeks, and used in the experiment. An administration dose was 25 mg/kg. A dosage for each individual was calculated based on the weight after fasting for 15 hours (on the day of administration), and the drug was orally administered once using a disposable syringe (1 mL) with a zonde for oral administration attached.
After respiratory anesthesia, blood was collected by heart blood collection with a 1 mL syringe, placed in a K2-EDTA-treated tube, and centrifuged at 8,000 RPM at 4° C. for 20 minutes, and plasma was collected from a supernatant. Heat perfusion was performed on animals after blood collection, a brain tissue was harvested, and olfactory bulb, cerebellum, pones, and medulla oblongata were removed from the harvested brain tissue. The collected plasma and brain tissue were frozen and stored at −80° C. until analysis.
In order to secure a sufficient amount of analysis sample, a mixed (pulled) sample of brain tissue and blood secured from two individuals was used (securing three repetitive samples from 6 animals in one collection). Blood plasma and brain tissue were collected from a mouse of the same week of age to which the compound was not administered, and used as a blank blood plasma and a blank tissue in the material concentration analysis.
190 μL of acetonitrile was added to 10 μL of a blood plasma sample including 200 ng/mL of the internal standard material and vortexed at 2,500 RPM for 60 seconds. Thereafter, centrifugation was performed at 12,000 RPM for 5 minutes, and 50 μL of a supernatant was taken and mixed with 50 μL of acetonitrile. 2 μL thereof was injected into LC-MS/MS.
The brain tissue was weighed, third distilled water equivalent to 4 times (w/v=¼) the weight was added, and homogenization was performed using a homogenizer. 10 μL of the homogenized tissue mixed solution was taken, 190 μL of acetonitrile including 50 ng/mL of the internal standard material was added, and vortexing was performed at 2,500 RPM for 60 seconds. Thereafter, centrifugation was performed at 12,000 RPM for 10 minutes, and 2 μL of a supernatant was taken and injected into LC-MS/MS.
PK parameter was calculated with a Non-compartmental analysis model using a PKSolver2.0 software.

[3] = system: HOG-GSC brain tumor stem cell line; experiment: In vivo efficacy evaluation, HOG-GSC orthotopic xenograft model; design: species or system BALB/c nude mouse; conditions: 25 mg/kg/day oral, day 16 after tumor transplantation
Description: First, HOG-GSC which is a brain tumor stem cell line was transplanted to a caudate putamen in the brain of a BALB/c nude mouse to establish am orthotropic xenograft model. After transplanting the brain tumor stem cells, the implementation compound of the present invention was orally administered from day 7 for 3 weeks with a schedule of 5 days of administration and 2 days of off medication, and only excipient was administration in the same manner to the control group. Thereafter, based on clinical findings resulting from the growth of the brain tumor in the animals, the survival period of the mouse was investigated, thereby confirming that the death of the animal due to a tumor was delayed by the administration of the implementation compound of the present invention. In addition, both the control mouse and the mouse to which the implementation compound of the present invention was administered were euthanized on day 16 after transplanting the tumor, their brain tissues were harvested, and the sizes of the brain tumor on the same date were compared.

## CC(C)(C)c1ccc(-c2cc(/C=C3\SC(=O)NC3=O)ccn2)cc1 [Compound 11, (Z)-5-((2-(4-(tert-butyl)phenyl)pyridin-4-yl)methylene)thiazolidine-2,4-dione]
[1]
  cell viability inhibition effect (normalized MTS value): significant cell viability inhibition effect
[2]; read-out: Brain-to-plasma ratio by AUC (brain/plasma)
  Kp: 0.543
[2]; read-out: Brain-to-plasma ratio by concentration (brain/plasma), Average
  Kp: 0.47
[2]; read-out: Brain-to-plasma ratio by concentration (brain/plasma), Max
  Kp: 0.777
[2]; Brain (25 mg/kg, PO)
  Cmax: 12.6 µg/mL
  Tmax: 3 h
  AUC(0-inf): 96.8 µg·h/mL
  AUC(0-t): 96 µg·h/mL
  MRT inf: 6 h
  half-life: 2.83 h
[2]; Plasma (25 mg/kg, PO)
  Cmax: 20.4 µg/mL
  Tmax: 1.33 h
  AUC(0-inf): 180 µg·h/mL
  AUC(0-t): 177 µg·h/mL
  MRT inf: 6.95 h
  half-life: 3.08 h
  Clobs, Mean: 0.1392 L/h/kg
  Vzobs, Mean: 0.617 L/kg
[3]
  Tumor cross-sectional area/brain cross-sectional ratio, Average: 0.02186
  Tumor cross-sectional area/brain cross-sectional ratio, individual: 0.04373 and 0
